# Like-named read-outs stand apart in the source and are kept apart here.
# What was measured:
# [1] = target: T1, murine STING (Mus musculus, UniProt Q3TBT3); conditions: cited from earlier work
# T1 sequence (Q3TBT3 1-378): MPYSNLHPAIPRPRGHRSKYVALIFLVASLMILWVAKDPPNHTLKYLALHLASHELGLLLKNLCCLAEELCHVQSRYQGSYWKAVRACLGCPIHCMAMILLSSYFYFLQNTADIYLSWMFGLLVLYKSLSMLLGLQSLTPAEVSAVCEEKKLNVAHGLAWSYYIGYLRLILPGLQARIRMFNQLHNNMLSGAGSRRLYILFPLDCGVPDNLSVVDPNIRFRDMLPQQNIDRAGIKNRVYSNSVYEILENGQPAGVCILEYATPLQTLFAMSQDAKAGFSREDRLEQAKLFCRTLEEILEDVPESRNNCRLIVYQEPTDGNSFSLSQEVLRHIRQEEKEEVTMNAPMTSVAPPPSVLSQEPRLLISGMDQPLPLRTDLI
# [2] = target: T2, hSTINGmut (Homo sapiens, UniProt Q86WV6, G230I/H232R/Q266I/S162A); test: Time-course expression of STING-derived cytokines upon DMXAA treatment (qPCR); type: cell-based; conditions: MC38 and Hep2G cells encoding hSTINGmut; 50 μg/mL DMXAA; any given timepoint
# T2 construct: expressed in transfected cells
# T2 sequence (Q86WV6 whole entry S162A/G230I/H232R/Q266I): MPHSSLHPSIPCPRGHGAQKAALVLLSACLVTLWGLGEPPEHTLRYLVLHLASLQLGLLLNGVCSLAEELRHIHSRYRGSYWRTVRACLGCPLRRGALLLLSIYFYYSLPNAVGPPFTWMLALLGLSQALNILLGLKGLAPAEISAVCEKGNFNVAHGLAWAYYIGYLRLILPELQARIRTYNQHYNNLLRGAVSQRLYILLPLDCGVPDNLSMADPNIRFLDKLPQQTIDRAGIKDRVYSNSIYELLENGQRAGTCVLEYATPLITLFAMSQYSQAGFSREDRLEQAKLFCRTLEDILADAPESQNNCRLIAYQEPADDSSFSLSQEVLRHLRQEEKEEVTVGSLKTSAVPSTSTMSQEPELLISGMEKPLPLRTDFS
# Experimental: The objective of this experiment was to examine the time-course of STING-derived cytokine expression upon DMXAA treatment. As a readout, the expression of STING-derived cytokines was measured by qPCR.
# To this end, stable cell lines of MC38 and Hep2G cells encoding hSTINGmut have been obtained as described above. […] Cells were harvested and prepared for qPCR measurements as described above.
# [3] = test system: IFN-β protein levels in the serum
# Experimental: C57 wild type mice, aged 6 to 10 weeks, were injected intravenously with an AAV8 vector encoding either hSTINGmut (AAV8-hSTINGmut, 1×10^11 viral genomes) or as a control GFP (AAV8-GFP, 1.5×10^11 viral genomes).
# [4] = test system: HEK293 cells; test: Synergism proof of principle III: IFN-β and IL-12 mRNA by qPCR; type: cell-based, human; conditions: for IFN-β expression levels: hSTINGmut expressing cells
# Source text: To this end, HEK293 cells received 8 Gy or 0 Gy as described above for MC38 cells and then were co-transduced with AAV8-hSTINGmut (1×10^5 viral genomes), AAV8-ISREx4-IL12miR122T (1×10^5 viral genomes) and/or AAV-GFP (1×10^5 viral genomes) as indicated in the figure.
# [5] = target: T3, hSTINGwt (Homo sapiens, UniProt Q86WV6, H232R); test: DMXAA mediated expression of STING-derived cytokines (qPCR); type: cell-based; conditions: other groups (hSTINGwt, luciferase, no vector); 50 μg/mL DMXAA
# T3 construct: expressed in transfected cells
# T3 sequence (Q86WV6 whole entry H232R): as the sequence (Q86WV6 whole entry S162A/G230I/H232R/Q266I) above, with A162S, I230G, I266Q counted along it
# Experimental: (§1) As a readout, the expression of STING-derived cytokines was measured by qPCR.
# (§2) To this end, MC38 and Hep2G cells have been transduced with lentiviruses encoding luciferase, hSTINGwt, hSTINGmut to obtain stable cell lines as described above or were not transduced with any lentivirus (no vector). Respective cells were seeded in 24-well plates at a density of 750 cells/mm^2 in growth medium. […] Cells were harvested and prepared for qPCR measurements as described above. The expression of the cytokines IFN-β, TNF-α, IL-6, CXCL9 and CXCL10 were measured for either experimental group and expression levels relative to controls (no vector) were quantified.
# [6] = target: T2, hSTINGmut; test: as above; type: cell-based; conditions: hSTINGmut-transduced MC38 and Hep2G cells; 50 μg/mL DMXAA, 3 h or 6 h
# Experimental: as §1, §2
# [7] = human, in vivo; cited from earlier work
# [8] = test system: MC38 tumors; test: Synergism of DMXAA and radiotherapy in a humanized mouse model in vivo, cytokine ELISA; parameters: species or system STING deficient C57 mice (STING KO); conditions: 6 h after DMXAA 20 mg/kg, irradiated tumors
# [9] = target: hSTING[R]-S162A/G230I/Q266I (Homo sapiens, UniProt Q86WV6, G230I/H232R/Q266I/S162A); conditions: cited from earlier work
# Sequence of hSTING[R]-S162A/G230I/Q266I (Q86WV6 whole entry S162A/G230I/H232R/Q266I, the tested form may be a part): as the sequence (Q86WV6 whole entry S162A/G230I/H232R/Q266I) above
# [10] = test system: MC38 cells; test: Synergism proof of principle II: IL-12 mRNA by qPCR; type: cell-based, murine; conditions: cells transduced with AAV8-hSTINGmut plus AAV8-ISREx4-IL12miR122T
# Experimental: To this end, MC38 cells received 8 Gy or 0 Gy as described above and then were co-transduced with AAV8-hSTINGmut (1×10^5 viral genomes/cell) and AAV8-ISREx4-IL12miR122T (0.5×10^5 viral genomes/cell) as described above. For cell transduction, 8.5×10^9 viral genomes of AAV8-hSTINGmut and 4.25×10^9 viral genomes of AAV8-scIL12-miR122T, from known concentration stock solutions, were resuspended, each one, in 50 μl RPMI 2% FBS. The resuspended viral particles were then added to the wells where the cells were seeded. […] The IL-12 mRNA was determined by qPCR as described above (example 3) and expression levels were quantified in reference to non-transduced, non-irradiated cells treated with vehicle.
# [11] = target: human STING (Homo sapiens, UniProt Q86WV6); conditions: cited from earlier work
# Sequence of human STING (Q86WV6 whole entry H232R): as the sequence (Q86WV6 whole entry S162A/G230I/H232R/Q266I) above, with A162S, I230G, I266Q counted along it
# [12] = test system: native non-transduced MC38 cells; test: Synergism proof of principle IV: IFN-β protein by ELISA; type: cell-based, murine
# Experimental: In addition to the previous experiments, the objective of the fourth experiment was to further investigate the observed synergism between the canonical and non-canonical STING.
# To this end, native non-transduced MC38 cells received 0 Gy, 2 Gy or 8 Gy as described above. […] The IFN-p protein levels were determined by ELISA as described above.
# [13] = test system: MC38 cells; test: Synergism proof of principle I: IFN-β mRNA by qPCR; type: cell-based, murine; conditions: 8 Gy + DMXAA 50 μg/mL, without exogenic hSTINGmut
# Experimental: To this end, MC38 cells received 8 Gy or 0 Gy as described above (example 7). Cells were seeded thereafter at 750 cells/mm^2 density and were then either mock-transduced or transduced with AAV8-hSTINGmut (1×10^5 viral genomes/cell). For cell transduction 8.5×10^9 viral genomes of AAV8-hSTINGmut from known concentration stock solutions, were resuspended in 50 μl RPMI 2% FBS. The resuspended viral particles were then added to the wells where the cells were seeded.
compound,measurement,setting,value
"O=C(O)Cc1cccc2c(=O)cc(-c3ccccc3)oc12 [FAA, flavone-8-acetic acid]",activation of murine STING,[1],may also be activated
"Cc1ccc2c(=O)c3cccc(CC(=O)O)c3oc2c1C [DMXAA, 5,6-Dimethylxanthenone-4-acetic acid]",expression of STING-derived cytokines over time,[2],increase in expression levels
same,serum IFN-β levels in AAV8-GFP transduced control animals,"[3]; 20 mg DMXAA/kg bodyweight i.p., after a first injection",elevation
same,toxicity and mortality,"[3]; 20 mg DMXAA/kg, AAV8-hSTINGmut and AAV8-GFP mice, systemic STING stimulation",high toxicity and mortality
same,serum IFN-β levels in AAV8-hSTINGmut transduced mice,[3]; 5 or 10 mg DMXAA/kg bodyweight i.p.,very low levels
same,toxicity and mortality,"[3]; 5 or 10 mg DMXAA/kg, AAV8-hSTINGmut transduced mice",neither cause significant toxicity nor mortality
same,IL-12 expression levels,"[4]; ISREx4-IL12miR122T expressing cells, radiation plus further DMXAA treatment",significant increase
same,IFN-β expression levels,[4]; DMXAA 50 μg/mL,upregulated
same,IFN-β expression levels,[4]; DMXAA plus additional irradiation 8 Gy,significantly increased
same,"expression of the cytokines IFN-β, TNF-α, IL-6, CXCL9 and CXCL10",[5],no significant alteration
same,"expression of the cytokines IFN-β, TNF-α, IL-6, CXCL9 and CXCL10",[6],elevated
same,efficacy in clinical trials,[7],lack of efficacy
same,tolerability in clinical trials,[7],well tolerated and only displayed minor side effects
same,intratumor levels of IL-12,[8],increased significantly
same,activation of hSTING[R]-S162A/G230I/Q266I,[9],highly activated
same,IL-12 mRNA levels,[10]; 8 Gy,strong elevation
same,IL-12 mRNA levels,[10]; non-irradiated,slight elevation
same,activation of human STING,[11],unable to activate
same,IFN-β production,"[12]; 8 Gy plus DMXAA (different doses), 24 h or 48 h",exceeding the sum of those obtained with radiation alone and DMXAA alone
same,IFN-β production after a single dose of radiation,"[12]; 8 Gy, DMXAA 50 μg/mL 24 h later, collected after another 24 h",enhanced
same,IFN-β mRNA expression,[13],increase in IFN-β expression

# Source: patent US20250186623A1, “EXPRESSION SYSTEM FOR THE TREATMENT OF CANCER” (FUNDACION PARA LA INVESTIGACION MEDICA APLICADA, priority 2022, published 2025)
